From PMC12313074, “Targeting translation initiation yields fast-killing therapeutics against the zoonotic parasite Cryptosporidium parvum” (PLOS Pathogens, 2025)

B1: 5'-overhanging duplex RNA (42/24 nt) (dsRNA)
RNA 1: CAUUAUCGGAUAGUGGAACCUAGCUUCGACUAUCGGAUAAUC
RNA 2: GAUUAUCCGAUAGUCGAAGCUAGG

Experiments:
[1] = target: T1, MDR1 (multi-drug resistance-1) (Homo sapiens, UniProt P08183); experiment: cell tolerance (viability) assay, MDR1-overexpressing vs vector HCT-8 cells, reversed by elacridar; type: cell-based
T1 construct: gene ABCB1; transient over-expression from pCMV3-MDR1 in HCT-8 cells

[2] = target: MBP-CpeIF4A (Cryptosporidium parvum, UniProt F0X401 1-405); experiment: RNA alone, no ATP, no Roc-A; TSA: 90 mM Na2HPO4, 10 mM NaH2PO4, 2 mM DTT, pH 7.8, 5 uM MBP-CpeIF4A, 20 uM SYPRO Orange; melt 40-70 C at 1 C/min; conditions: protein: recombinant; tags: N-terminal MBP (pMAL-c5X); label: 6-FAM on 42-nt strand (text says 5' end, printed at 3'); BHQ-1 on 24-nt strand (text says 3', printed at 5'); 5' overhang 18 nt on strand 1, 24 bp duplex

Molecule	cell tolerance (viability) assay, MDR1-overexpressing vs vector HCT-8 cells, rev [1]	Kd [2]
COc1ccc([C@@]23Oc4cc(OC)cc(OC)c4[C@]2(O)[C@H](O)[C@H](C(=O)N(C)C)[C@H]3c2ccccc2)cc1 [Roc-A, Rocaglamide A]	reversed this tolerance in a dose-dependent manner (Fig 1D, bars from 3a to 6b), verifying that Roc-A is an MDR1 substrate	–
B1	–	1.13 µM
